In US6346390B1, “Receptor derived peptides involved in modulation of response to ligand binding” (Receptron, Inc., priority 1996, dated 2002):

Key:
rat adipose cells = assay: Glucose transport in adipose cells; assay type: cell-based
Experimental: The biological activity of the peptides were measured by their effect on glucose uptake in rat adipose cells as described (Stagsted et al. (1991) J. Biol. Chem. 266:12844-12847). Briefly, rat adipose cells were obtained from epididymal fat pads and suspended in Krebs-Ringer HEPES buffer (KRH) with 5% bovine serum albumin at a lipocrit of 10% (final). […] Most of the peptides were not tested at higher concentrations than 30 μM.

human insulin receptor = biological target: T1, human insulin receptor (Homo sapiens, UniProt P06213); assay: Insulin receptor internalization in transfected HeLa cells; assay type: cell-based; details: for effect on insulin receptor internalization (in words): transfected cells, 10 μM peptide
T1 construct: expressed in transfected cells; host or cells: HeLa cells, electroporated; pCR3 expression vector (Invitrogen, catalog no. K3000-01)
Experimental: Insulin Receptor modification and expression. […] K3000-01) was transfected by electroporation into HeLa cells. Methods of electroporation are described in Boggs et al. (1986) Ex. Hematol. 149:988-994. In the transfected cells the receptors show insulin dependent internalization.
Receptor internalization was performed essentially as described in Stagsted et al. (1990) Cell 62:297-307. […] The cells were then diluted with 50 μl of KRHB (pH7.2) (no acid wash) or 50 μl of KRHB (pH 2.0) (acid wash) and incubated on ice for 5 min. The cells were finally harvested by centrifugation on top of silicone oil, and both free and cell-associated radioactivity was measured.

In the case of “GNEQSFRVDLRTLLRYAGGGNEQSFRVDLRTLLRYA [DS-A85]”, the “enhancement of glucose uptake” value (rat adipose cells; insulin + 10 μM peptide (insulin alone 14±3 fold)) is reported as 22±4 fold.

With “KTDSQILKELEESSFRKTFEDYLH [pepIR, human insulin receptor derived peptide]” the “effect on glucose uptake (in words)” value (rat adipose cells; at maximal insulin stimulation) was “did not significantly affect glucose uptake” and the “effect on insulin receptor internalization (in words)” value (human insulin receptor) was “inhibits receptor internalization to the same extent as DS-A85”.

With TWLGRQGPEGPSSIPPGTLTTLW [GLUT4pep] the “per cent internalized receptor” value (human insulin receptor; in the presence of 10 μM peptide, time not stated, in the absence of peptide 64±7) was 6±9 per cent and the “effect on insulin receptor internalization (in words)” value (human insulin receptor) was “does not affect insulin receptor internalization”.

insulin was tested, and the “enhancement of glucose uptake” value (rat adipose cells; 10 nM insulin alone) was 12±4 fold and the “enhancement of glucose uptake” value (rat adipose cells; 10 μM insulin alone) was 14±3 fold.
